Assay results reported in ChEMBL document CHEMBL1151464 (2008).
≈ marks a conversion by molar mass, not a printed value.

Columns and labels:
Format in all cases: functional
Pseudomonas aeruginosa [1] = experiment: Antibacterial activity against Pseudomonas aeruginosa isolate 368 after 24 hrs by CLSI microdilution method; conditions: isolate 368, 24 h
Pseudomonas aeruginosa [2] = experiment: Antibacterial activity against Pseudomonas aeruginosa isolate 329 after 24 hrs by CLSI microdilution method; conditions: isolate 329, 24 h
Acinetobacter baumannii [3] = experiment: Antibacterial activity against Acinetobacter baumannii isolate 926 after 24 hrs by CLSI microdilution method; conditions: isolate 926, 24 h
Acinetobacter baumannii [4] = experiment: Antibacterial activity against Acinetobacter baumannii isolate 911 after 24 hrs by CLSI microdilution method; conditions: isolate 911, 24 h
Acinetobacter baumannii [5] = experiment: Antibacterial activity against Acinetobacter baumannii isolate 893 after 24 hrs by CLSI microdilution method; conditions: isolate 893, 24 h
Pseudomonas aeruginosa [6] = experiment: Antibacterial activity against Pseudomonas aeruginosa isolate 322 after 24 hrs by CLSI microdilution method; conditions: isolate 322, 24 h
Pseudomonas aeruginosa [7] = experiment: Antibacterial activity against Pseudomonas aeruginosa isolate 319 after 24 hrs by CLSI microdilution method; conditions: isolate 319, 24 h
Pseudomonas aeruginosa [8] = experiment: Antibacterial activity against Pseudomonas aeruginosa isolate 379 expressing VIM2 beta-lactamase after 24 hrs by CLSI microdilution method; conditions: isolate 379, 24 h
Acinetobacter baumannii [9] = experiment: Antibacterial activity against Acinetobacter baumannii isolate 902 after 24 hrs by CLSI microdilution method; conditions: isolate 902, 24 h
Pseudomonas aeruginosa [10] = experiment: Antibacterial activity against Pseudomonas aeruginosa isolate 370 after 24 hrs by CLSI microdilution method; conditions: isolate 370, 24 h
Acinetobacter baumannii [11] = experiment: Antibacterial activity against Acinetobacter baumannii isolate 931 after 24 hrs by CLSI microdilution method; conditions: isolate 931, 24 h
Acinetobacter baumannii [12] = experiment: Antibacterial activity against Acinetobacter baumannii isolate 928 after 24 hrs by CLSI microdilution method; conditions: isolate 928, 24 h
Acinetobacter baumannii [13] = experiment: Antibacterial activity against Acinetobacter baumannii isolate 912 after 24 hrs by CLSI microdilution method; conditions: isolate 912, 24 h
Acinetobacter baumannii [14] = experiment: Antibacterial activity against Acinetobacter baumannii isolate 915 after 24 hrs by CLSI microdilution method; conditions: isolate 915, 24 h
Acinetobacter baumannii [15] = experiment: Antibacterial activity against Acinetobacter baumannii isolate 883 after 24 hrs by CLSI microdilution method; conditions: isolate 883, 24 h
Acinetobacter baumannii [16] = experiment: Antibacterial activity against Acinetobacter baumannii isolate 934 after 24 hrs by CLSI microdilution method; conditions: isolate 934, 24 h
Pseudomonas aeruginosa [17] = experiment: Antibacterial activity against Pseudomonas aeruginosa isolate 357 after 24 hrs by CLSI microdilution method; conditions: isolate 357, 24 h
Pseudomonas aeruginosa [18] = experiment: Antibacterial activity against Pseudomonas aeruginosa isolate 338 after 24 hrs by CLSI microdilution method; conditions: isolate 338, 24 h
Pseudomonas aeruginosa [19] = experiment: Antibacterial activity against Pseudomonas aeruginosa isolate 374 after 24 hrs by CLSI microdilution method; conditions: isolate 374, 24 h
Pseudomonas aeruginosa [20] = experiment: Antibacterial activity against Pseudomonas aeruginosa isolate 356 after 24 hrs by CLSI microdilution method; conditions: isolate 356, 24 h
Pseudomonas aeruginosa [21] = experiment: Antibacterial activity against Pseudomonas aeruginosa isolate 345 after 24 hrs by CLSI microdilution method; conditions: isolate 345, 24 h
Pseudomonas aeruginosa [22] = experiment: Antibacterial activity against Pseudomonas aeruginosa isolate 331 after 24 hrs by CLSI microdilution method; conditions: isolate 331, 24 h
Pseudomonas aeruginosa [23] = experiment: Antibacterial activity against Pseudomonas aeruginosa isolate 364 after 24 hrs by CLSI microdilution method; conditions: isolate 364, 24 h
Acinetobacter baumannii [24] = experiment: Antibacterial activity against Acinetobacter baumannii isolate 894 after 24 hrs by CLSI microdilution method; conditions: isolate 894, 24 h
Pseudomonas aeruginosa [25] = experiment: Antibacterial activity against Pseudomonas aeruginosa isolate 366 after 24 hrs by CLSI microdilution method; conditions: isolate 366, 24 h
Pseudomonas aeruginosa [26] = experiment: Antibacterial activity against Pseudomonas aeruginosa isolate 337 after 24 hrs by CLSI microdilution method; conditions: isolate 337, 24 h
Pseudomonas aeruginosa [27] = experiment: Antibacterial activity against Pseudomonas aeruginosa isolate 355 after 24 hrs by CLSI microdilution method; conditions: isolate 355, 24 h
Pseudomonas aeruginosa [28] = experiment: Antibacterial activity against Pseudomonas aeruginosa isolate 330 after 24 hrs by CLSI microdilution method; conditions: isolate 330, 24 h
Acinetobacter baumannii [29] = experiment: Antibacterial activity against Acinetobacter baumannii isolate 925 after 24 hrs by CLSI microdilution method; conditions: isolate 925, 24 h
Pseudomonas aeruginosa [30] = experiment: Antibacterial activity against Pseudomonas aeruginosa isolate 372 after 24 hrs by CLSI microdilution method; conditions: isolate 372, 24 h
Acinetobacter baumannii [31] = experiment: Antibacterial activity against Acinetobacter baumannii isolate 884 after 24 hrs by CLSI microdilution method; conditions: isolate 884, 24 h
Acinetobacter baumannii [32] = experiment: Antibacterial activity against Acinetobacter baumannii isolate 892 after 24 hrs by CLSI microdilution method; conditions: isolate 892, 24 h
Acinetobacter baumannii [33] = experiment: Antibacterial activity against Acinetobacter baumannii isolate 920 after 24 hrs by CLSI microdilution method; conditions: isolate 920, 24 h
Acinetobacter baumannii [34] = experiment: Antibacterial activity against Acinetobacter baumannii isolate 930 after 24 hrs by CLSI microdilution method; conditions: isolate 930, 24 h
Acinetobacter baumannii [35] = experiment: Antibacterial activity against Acinetobacter baumannii isolate 909 after 24 hrs by CLSI microdilution method; conditions: isolate 909, 24 h
Acinetobacter baumannii [36] = experiment: Antibacterial activity against Acinetobacter baumannii isolate 923 after 24 hrs by CLSI microdilution method; conditions: isolate 923, 24 h
Pseudomonas aeruginosa [37] = experiment: Antibacterial activity against Pseudomonas aeruginosa isolate 352 after 24 hrs by CLSI microdilution method; conditions: isolate 352, 24 h
Acinetobacter baumannii [38] = experiment: Antibacterial activity against Acinetobacter baumannii isolate 906 after 24 hrs by CLSI microdilution method; conditions: isolate 906, 24 h
Pseudomonas aeruginosa [39] = experiment: Antibacterial activity against Pseudomonas aeruginosa isolate 335 after 24 hrs by CLSI microdilution method; conditions: isolate 335, 24 h
Pseudomonas aeruginosa [40] = experiment: Antibacterial activity against Pseudomonas aeruginosa isolate 358 after 24 hrs by CLSI microdilution method; conditions: isolate 358, 24 h
Acinetobacter baumannii [41] = experiment: Antibacterial activity against Acinetobacter baumannii isolate 922 after 24 hrs by CLSI microdilution method; conditions: isolate 922, 24 h
Pseudomonas aeruginosa [42] = experiment: Antibacterial activity against Pseudomonas aeruginosa isolate 339 after 24 hrs by CLSI microdilution method; conditions: isolate 339, 24 h
Pseudomonas aeruginosa [43] = experiment: Antibacterial activity against Pseudomonas aeruginosa isolate 326 after 24 hrs by CLSI microdilution method; conditions: isolate 326, 24 h
Pseudomonas aeruginosa [44] = experiment: Antibacterial activity against Pseudomonas aeruginosa isolate 328 after 24 hrs by CLSI microdilution method; conditions: isolate 328, 24 h
Acinetobacter baumannii [45] = experiment: Antibacterial activity against Acinetobacter baumannii isolate 903 after 24 hrs by CLSI microdilution method; conditions: isolate 903, 24 h
Pseudomonas aeruginosa [46] = experiment: Antibacterial activity against Pseudomonas aeruginosa isolate 371 after 24 hrs by CLSI microdilution method; conditions: isolate 371, 24 h
Pseudomonas aeruginosa [47] = experiment: Antibacterial activity against Pseudomonas aeruginosa isolate 340 after 24 hrs by CLSI microdilution method; conditions: isolate 340, 24 h
Acinetobacter baumannii [48] = experiment: Antibacterial activity against Acinetobacter baumannii isolate 889 after 24 hrs by CLSI microdilution method; conditions: isolate 889, 24 h
Acinetobacter baumannii [49] = experiment: Antibacterial activity against Acinetobacter baumannii isolate 900 after 24 hrs by CLSI microdilution method; conditions: isolate 900, 24 h
Acinetobacter baumannii [50] = experiment: Antibacterial activity against Acinetobacter baumannii isolate 886 after 24 hrs by CLSI microdilution method; conditions: isolate 886, 24 h
Acinetobacter baumannii [51] = experiment: Antibacterial activity against Acinetobacter baumannii isolate 896 after 24 hrs by CLSI microdilution method; conditions: isolate 896, 24 h
Acinetobacter baumannii [52] = experiment: Antibacterial activity against Acinetobacter baumannii isolate 932 expressing OXA-24 and OXA-51 beta-lactamase after 24 hrs by CLSI microdilution method; conditions: isolate 932, 24 h
Acinetobacter baumannii [53] = experiment: Antibacterial activity against Acinetobacter baumannii isolate 917 after 24 hrs by CLSI microdilution method; conditions: isolate 917, 24 h
Pseudomonas aeruginosa [54] = experiment: Antibacterial activity against Pseudomonas aeruginosa isolate 332 after 24 hrs by CLSI microdilution method; conditions: isolate 332, 24 h
Acinetobacter baumannii [55] = experiment: Antibacterial activity against Acinetobacter baumannii isolate 924 after 24 hrs by CLSI microdilution method; conditions: isolate 924, 24 h
Pseudomonas aeruginosa [56] = experiment: Antibacterial activity against Pseudomonas aeruginosa isolate 363 after 24 hrs by CLSI microdilution method; conditions: isolate 363, 24 h
Pseudomonas aeruginosa [57] = experiment: Antibacterial activity against Pseudomonas aeruginosa isolate 349 after 24 hrs by CLSI microdilution method; conditions: isolate 349, 24 h
Acinetobacter baumannii [58] = experiment: Antibacterial activity against Acinetobacter baumannii isolate 927 after 24 hrs by CLSI microdilution method; conditions: isolate 927, 24 h
Acinetobacter baumannii [59] = experiment: Antibacterial activity against Acinetobacter baumannii isolate 897 after 24 hrs by CLSI microdilution method; conditions: isolate 897, 24 h

`C[C@@H](O)[C@H]1C(=O)N2C(C(=O)O)=C(S[C@@H]3CN[C@H](C(=O)N(C)C)C3)[C@H](C)[C@H]12` [MEROPENEM] was tested, and the MIC (Pseudomonas aeruginosa [1]) was 0.25 µg/mL (≈ 0.652 µM), the MIC (Pseudomonas aeruginosa [2]) was 0.5 µg/mL (≈ 1.3 µM) and the MIC (Acinetobacter baumannii [3]) was 32 µg/mL (≈ 83.4 µM). For the same compound, the MIC (Acinetobacter baumannii [4]) was 16 µg/mL (≈ 41.7 µM), the MIC (Acinetobacter baumannii [5]) was 2 µg/mL (≈ 5.22 µM) and the MIC (Pseudomonas aeruginosa [6]) was 2 µg/mL (≈ 5.22 µM). For the same compound, the MIC (Pseudomonas aeruginosa [7]) was 2 µg/mL (≈ 5.22 µM), the MIC (Pseudomonas aeruginosa [8]) was 256 µg/mL (≈ 668 µM) and the MIC (Acinetobacter baumannii [9]) was 1 µg/mL (≈ 2.61 µM). The MIC (Pseudomonas aeruginosa [10]) was 1 µg/mL (≈ 2.61 µM), the MIC (Acinetobacter baumannii [11]) was 2 µg/mL (≈ 5.22 µM) and the MIC (Acinetobacter baumannii [12]) was 2 µg/mL (≈ 5.22 µM). The MIC (Acinetobacter baumannii [13]) was 4 µg/mL (≈ 10.4 µM), the MIC (Acinetobacter baumannii [14]) was 0.5 µg/mL (≈ 1.3 µM) and the MIC (Acinetobacter baumannii [15]) was 1 µg/mL (≈ 2.61 µM). The MIC (Acinetobacter baumannii [16]) was 32 µg/mL (≈ 83.4 µM), the MIC (Pseudomonas aeruginosa [17]) was 0.5 µg/mL (≈ 1.3 µM) and the MIC (Pseudomonas aeruginosa [18]) was 1 µg/mL (≈ 2.61 µM). The MIC (Pseudomonas aeruginosa [19]) was 0.5 µg/mL (≈ 1.3 µM), the MIC (Pseudomonas aeruginosa [20]) was 2 µg/mL (≈ 5.22 µM) and the MIC (Pseudomonas aeruginosa [21]) was 1 µg/mL (≈ 2.61 µM). It also gave an MIC (Pseudomonas aeruginosa [22]) of 0.12 µg/mL (≈ 0.313 µM), an MIC (Pseudomonas aeruginosa [23]) of 0.12 µg/mL (≈ 0.313 µM) and an MIC (Acinetobacter baumannii [24]) of 2 µg/mL (≈ 5.22 µM). The MIC (Pseudomonas aeruginosa [25]) was 0.5 µg/mL (≈ 1.3 µM), the MIC (Pseudomonas aeruginosa [26]) was 1 µg/mL (≈ 2.61 µM) and the MIC (Pseudomonas aeruginosa [27]) was 0.25 µg/mL (≈ 0.652 µM). For the same compound, the MIC (Pseudomonas aeruginosa [28]) was 0.5 µg/mL (≈ 1.3 µM), the MIC (Acinetobacter baumannii [29]) was 1 µg/mL (≈ 2.61 µM) and the MIC (Pseudomonas aeruginosa [30]) was 16 µg/mL (≈ 41.7 µM). The MIC (Acinetobacter baumannii [31]) was 8 µg/mL (≈ 20.9 µM), the MIC (Acinetobacter baumannii [32]) was 32 µg/mL (≈ 83.4 µM) and the MIC (Acinetobacter baumannii [33]) was 1 µg/mL (≈ 2.61 µM). It also gave an MIC (Acinetobacter baumannii [34]) of 0.25 µg/mL (≈ 0.652 µM), an MIC (Acinetobacter baumannii [35]) of 1 µg/mL (≈ 2.61 µM) and an MIC (Acinetobacter baumannii [36]) of 0.5 µg/mL (≈ 1.3 µM). The MIC (Pseudomonas aeruginosa [37]) was 2 µg/mL (≈ 5.22 µM), the MIC (Acinetobacter baumannii [38]) was 1 µg/mL (≈ 2.61 µM) and the MIC (Pseudomonas aeruginosa [39]) was 4 µg/mL (≈ 10.4 µM). For the same compound, the MIC (Pseudomonas aeruginosa [40]) was 16 µg/mL (≈ 41.7 µM), the MIC (Acinetobacter baumannii [41]) was 1 µg/mL (≈ 2.61 µM) and the MIC (Pseudomonas aeruginosa [42]) was 0.5 µg/mL (≈ 1.3 µM). The MIC (Pseudomonas aeruginosa [43]) was 16 µg/mL (≈ 41.7 µM), the MIC (Pseudomonas aeruginosa [44]) was 2 µg/mL (≈ 5.22 µM) and the MIC (Acinetobacter baumannii [45]) was 1 µg/mL (≈ 2.61 µM). For the same compound, the MIC (Pseudomonas aeruginosa [46]) was 16 µg/mL (≈ 41.7 µM), the MIC (Pseudomonas aeruginosa [47]) was 1 µg/mL (≈ 2.61 µM) and the MIC (Acinetobacter baumannii [48]) was 1 µg/mL (≈ 2.61 µM). It also gave an MIC (Acinetobacter baumannii [49]) of 0.5 µg/mL (≈ 1.3 µM), an MIC (Acinetobacter baumannii [50]) of 0.5 µg/mL (≈ 1.3 µM) and an MIC (Acinetobacter baumannii [51]) of 2 µg/mL (≈ 5.22 µM). The MIC (Acinetobacter baumannii [52]) was 256 µg/mL (≈ 668 µM), the MIC (Acinetobacter baumannii [53]) was 0.5 µg/mL (≈ 1.3 µM) and the MIC (Pseudomonas aeruginosa [54]) was 4 µg/mL (≈ 10.4 µM). It also gave an MIC (Acinetobacter baumannii [55]) of 0.5 µg/mL (≈ 1.3 µM), an MIC (Pseudomonas aeruginosa [56]) of 1 µg/mL (≈ 2.61 µM) and an MIC (Pseudomonas aeruginosa [57]) of 2 µg/mL (≈ 5.22 µM). It also gave an MIC (Acinetobacter baumannii [58]) of 0.12 µg/mL (≈ 0.313 µM) and an MIC (Acinetobacter baumannii [59]) of 1 µg/mL (≈ 2.61 µM).
